In PMC8746858 (Molecules, 2021):
≈ marks a conversion by molar mass, not a printed value. Read-outs that look alike come from different tables or passages of the source.

What was measured:
[1] = Solubility in water, HPLC of saturated solutions
Description: Then, the obtained saturated solutions were diluted 100 times and analyzed. […] A mixture of 50% acetonitrile and 50% water was used as the mobile phase. The flow rate was 1 cm^3·min^−1. The column temperature was 30 °C. A Luna® Omega 3 µm Polar C18 100 Å column with dimensions of 150 × 4.6 mm was used. The injection volume for these samples was 50 mm^3. Each measurement was performed in triplicate, and the results were averaged.

[2] = system: fibroblasts (NIH/3T3 cells); assay: cells
Description: (§1) Finally, control experiments with non-treated cells were performed.
The effect of the compounds on the viability of murine 3T3 fibroblasts was estimated using NRU assay. After the incubation time (24 h) cells, media were removed, then to each well we added 100 µL of medium containing neutral red (50 µg/mL). […] The plates were shaken for 10 min at room temperature. Then, the absorption at 540 nm was measured using a microplate reader (Biosan). The results were calculated for each sample concentration as a percentage of medium control. The values are presented as mean ± standard deviation of three independent experiments.

MTT viability assay = conditions: human, HaCaT keratinocytes
Description: as §1
(§2) We applied an assay based on the reduction of methyl thiazol tetrazolium bromide (MTT) to assess the effect of the compounds on the viability of HaCaT cells. […] After that, the cells were lysed with a solution of DMSO:ethanol (1:1 v/v). The absorbance of the reduced formazan dye product was read at 560 nm in a microplate reader (Biosan). The results were calculated for each sample concentration as a percentage of medium control. The values are presented as mean ± standard deviation of three independent experiments.

[3] = system: human keratinocytes (HaCaT cells); assay: MTT viability assay; conditions: for IC50: HaCaT, 24 h; for Viability of HaCaT after 48 h Treatment with 0.4 mM IL or SA: calculated as percentage of medium control, in %
Description: as §1, §2

[4] = TG, air atmosphere, 10 °C·min^−1
[5] = Solubility in typical solvents, modified Vogel method; conditions: 25 °C; for Solubility in Water (63.1): ET(30) in parentheses
Description: For this purpose, dimethyl sulfoxide, ethanol, chloroform, ethyl acetate, diethyl ether, toluene, and n-hexane were used as solvents.

IL-6 = IL-6 ELISA in supernatant of LPS-stimulated HaCaT cells; format: cell-based, human; conditions: 12 h pretreatment then LPS 12 h
Description: HaCaT cells were seeded in a 24-well plate at a density of 5 × 10^4 cells/well and maintained in DMEM high glucose with 10% FBS until an 80% confluent monolayer was reached. […] Control experiments with LPS-treated cells only were conducted. Controls with cells treated with neither compounds nor LPS were also performed. After that, the cell culture supernatant was collected, and the IL-6 cytokine was measured using an ELISA kit.

[6] = NIH/3T3, 24 h, neutral red uptake
[7] = read-out: IC50 (in mM), NIH/3T3, 24 h, neutral red uptake
[8] = the two tested concentrations (1 and 10 µM)

Structure (SMILES) | Tonset, the onset of the thermal degradation [4] [°C] | Solubility in Chloroform (39.1) [5] | Solubility in DMSO (45.1) [5] | Solubility in Diethyl ether (34.5) [5] | Solubility in Ethanol (51.9) [5] | Solubility in Ethyl Acetate (38.1) [5] | Solubility in Toluene (33.9) [5] | Solubility in n-Hexane (31.0) [5] | Solubility in Water (63.1) [5] | IC50 [2, 6] [µg/mL] | IC50 [2, 7] [mM] | Solubility in Water at 25 °C ([1]; g of compound per dm^3) [g·dm^−3] | Viability of HaCaT after 48 h Treatment with 0.4 mM IL or SA [3] | IC50 ([3]; MTT) [µg/mL] | IC50 ([3]; read-out: IC50 (in mM), MTT) [mM] | further results
O=C(O)c1ccccc1O [SA, Salicylic acid, reference compound] | 171.3 | +/− (partially soluble 33–100 mg·cm^−3) | + (soluble >100 mg·cm^−3) | + (soluble >100 mg·cm^−3) | + (soluble >100 mg·cm^−3) | + (soluble >100 mg·cm^−3) | +/− (partially soluble 33–100 mg·cm^−3) | − (insoluble < 33 mg·cm^−3) | +/− (partially soluble 33–100 mg·cm^−3) |  |  |  |  |  |  | Solubility in Water at 25 °C ([1]; amount of active compound (SA) per dm^3): 3.852 ± 0.004 g SA·dm^−3; solubility ([1]; water): 3852 ± 4 µg/mL (≈ 27.9 mM); IC50 ([2]; Mus musculus, NIH3T3, 24 h): 300 ± 6 µg/mL; IC50 ([2]; Mus musculus, NIH3T3, 24 h, read-out: IC50 (in mM)): ~2.2 mM; viability at 48 h, 0.4 mM (MTT viability assay): 71 ± 3%; IC50 ([3]; Homo sapiens): 200 ± 100 µg/mL; IC50 ([3]; Homo sapiens, read-out: IC50 (in mM)): ~1.6 mM
CCOC(=O)[C@@H](N)CC(C)C.O=C(O)c1ccccc1O [[LeuOEt][SA], L-leucine ethyl ester salicylate] |  |  |  |  |  |  |  |  |  | 894 ± 12 | ~3 |  |  |  |  | Level of IL-6 in LPS-stimulated HaCaT (IL-6; 1 µM): no effect or negligible inhibition of the IL-6 production
CCOC(=O)[C@@H](N)Cc1ccccc1.O=C(O)c1ccccc1O [[PheOEt][SA], L-phenylalanine ethyl ester salicylate] | 181.1 | + (soluble >100 mg·cm^−3) | + (soluble >100 mg·cm^−3) | + (soluble >100 mg·cm^−3) | +/− (partially soluble 33–100 mg·cm^−3) | +/− (partially soluble 33–100 mg·cm^−3) | − (insoluble < 33 mg·cm^−3) | − (insoluble < 33 mg·cm^−3) | − (insoluble < 33 mg·cm^−3) | 1062 ± 15 | ~3.2 | 9.732 ± 0.010 | 105 ± 4 | 2200 ± 150 | ~6.6 | Level of IL-6 in LPS-stimulated HaCaT (IL-6; [8]): comparable to those produced by 1 µM SA
CCCOC(=O)[C@@H](N)Cc1ccccc1.O=C(O)c1ccccc1O [[PheOPr][SA], L-phenylalanine propyl ester salicylate] | 185.0 | + (soluble >100 mg·cm^−3) | + (soluble >100 mg·cm^−3) | + (soluble >100 mg·cm^−3) | +/− (partially soluble 33–100 mg·cm^−3) | +/− (partially soluble 33–100 mg·cm^−3) | − (insoluble < 33 mg·cm^−3) | − (insoluble < 33 mg·cm^−3) | − (insoluble < 33 mg·cm^−3) | 662 ± 9 | ~1.9 | 1.143 ± 0.001 | 93 ± 4 | 650 ± 100 | ~1.9 | Level of IL-6 in LPS-stimulated HaCaT (IL-6; 1 µM): completely protected from inflammation; Level of IL-6 in LPS-stimulated HaCaT (IL-6; 10 μM): no effect or negligible inhibition of the IL-6 production
CCCCOC(=O)[C@@H](N)C(C)C.O=C(O)c1ccccc1O [[ValOBu][SA], L-valine butyl ester salicylate] | 171.8 | + (soluble >100 mg·cm^−3) | + (soluble >100 mg·cm^−3) | + (soluble >100 mg·cm^−3) | +/− (partially soluble 33–100 mg·cm^−3) | + (soluble >100 mg·cm^−3) | + (soluble >100 mg·cm^−3) | − (insoluble < 33 mg·cm^−3) | +/− (partially soluble 33–100 mg·cm^−3) | 309 ± 9 | ~1 | 14.490 ± 0.014 | 74 ± 1 | 600 ± 200 | ~1.9 | 
CCOC(=O)[C@@H](N)C(C)C.O=C(O)c1ccccc1O [[ValOEt][SA], L-valine ethyl ester salicylate] | 157.6 | + (soluble >100 mg·cm^−3) | + (soluble >100 mg·cm^−3) | + (soluble >100 mg·cm^−3) | + (soluble >100 mg·cm^−3) | + (soluble >100 mg·cm^−3) | + (soluble >100 mg·cm^−3) | − (insoluble < 33 mg·cm^−3) | +/− (partially soluble 33–100 mg·cm^−3) | 700 ± 8 | ~2.5 | 26.070 ± 0.026 | 74 ± 2 | 600 ± 10 | ~2.1 | Level of IL-6 in LPS-stimulated HaCaT (IL-6; [8]): comparable to those produced by 1 µM SA
CCCOC(=O)[C@@H](N)C(C)C.O=C(O)c1ccccc1O [[ValOPr][SA], L-valine propyl ester salicylate] | 177.9 | + (soluble >100 mg·cm^−3) | + (soluble >100 mg·cm^−3) | + (soluble >100 mg·cm^−3) | + (soluble >100 mg·cm^−3) | + (soluble >100 mg·cm^−3) | + (soluble >100 mg·cm^−3) | − (insoluble < 33 mg·cm^−3) | +/− (partially soluble 33–100 mg·cm^−3) | 1310 ± 17 |  | 21.789 ± 0.024 | 74 ± 2 | 500 ± 50 | ~1.8 | 
CC(C)OC(=O)[C@@H](N)C(C)C.O=C(O)c1ccccc1O [[ValOiPr][SA], L-valine isopropyl ester salicylate] | 163.1 | + (soluble >100 mg·cm^−3) | + (soluble >100 mg·cm^−3) | +/− (partially soluble 33–100 mg·cm^−3) | + (soluble >100 mg·cm^−3) | +/− (partially soluble 33–100 mg·cm^−3) | + (soluble >100 mg·cm^−3) | − (insoluble < 33 mg·cm^−3) | +/− (partially soluble 33–100 mg·cm^−3) | 658 ± 7 | ~2.2 | 18.458 ± 0.018 | 66 ± 2 | 900 ± 50 | ~3.1 | Level of IL-6 in LPS-stimulated HaCaT (IL-6; 10 μM): no effect or negligible inhibition of the IL-6 production
